Read-outs that look alike come from different tables or passages of the source.
Target: T1, DGAT1 (Homo sapiens, UniProt O75907)
T1 sequence (O75907 1-488): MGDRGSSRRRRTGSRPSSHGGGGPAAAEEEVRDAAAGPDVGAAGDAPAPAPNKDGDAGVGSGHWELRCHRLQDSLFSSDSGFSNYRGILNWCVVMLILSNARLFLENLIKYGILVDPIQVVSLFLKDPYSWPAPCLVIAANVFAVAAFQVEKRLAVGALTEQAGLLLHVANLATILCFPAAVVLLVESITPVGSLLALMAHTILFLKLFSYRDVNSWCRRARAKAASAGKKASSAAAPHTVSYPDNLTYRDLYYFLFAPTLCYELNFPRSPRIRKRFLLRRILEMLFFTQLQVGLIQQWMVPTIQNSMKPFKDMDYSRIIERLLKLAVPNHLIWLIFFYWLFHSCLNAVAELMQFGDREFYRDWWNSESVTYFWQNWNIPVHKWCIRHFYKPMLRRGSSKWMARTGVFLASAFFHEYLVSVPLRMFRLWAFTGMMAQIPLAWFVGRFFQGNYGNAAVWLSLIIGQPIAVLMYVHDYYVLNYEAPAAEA
Test: Human DGAT1 IC50 enzyme assay (Flashplate, 14C-labeled acyl-CoA)
Assay type: biochemical
Set-up: made in house
Description: The ability of compounds to inhibit DGAT enzyme activity is determined by calculating IC50 values of test compounds. Ki values of DGAT1 are calculated as follows: Cheng-Prusoff equation: Ki=IC50/(1+[S]/Km)
(1) Human DGAT1 IC50 (nM) Experiment
Human DGAT1 activity was determined as follows:
Expressing human DGAT1 enzyme, used diacylglycerol and 14C-labeled acyl-CoA as the substrate, choose PE Company Flashplate testing board to build DGAT1 enzyme reaction system. 14C-labeled acyl-CoA binds to diacylglycerol by covalent bonding after enzymology reaction, and generates the product of 14C-labeled triglyceride. 14C-labeled acyl-CoA substrate is dissolved in reaction solution and 14C-labeled triglyceride product combine with phospholipids of Flashplate plate bottom layer, thus effectively separate labeled substrates and products. The radioactive of 14C-labeled triglyceride which is combined with phospholipid layer is counted, and the potencies of DGAT-1 inhibition for the compounds are determined by calculating the IC50 values.

[1] = average of first and second, read-out: hDGAT1 IC50(nM) Average
[2] = first determination, read-out: hDGAT1 IC50(nM) First
[3] = second determination, read-out: hDGAT1 IC50(nM) Second

IC50 [1]	IC50 [2]	IC50 [3]	Compound
55.8 nM	78 nM	33.6 nM	CC(C(=O)O)n1cc(-c2ccc(N3CCOc4ncnc(N)c4C3=O)cc2Cl)cn1 (stereo not drawn) [Compound 34, 2-(4-(4-(4-amino-5-oxo-7,8-dihydropyrimido[5,4-f][1,4]oxazepin-6(5H)-yl)-2-chlorophenyl)-1H-pyrazol-1-yl) propanoic acid]
52.9 nM	64.1 nM	41.6 nM	Nc1ncnc2c1C(=O)N(c1ccc(N3CCN(CC(=O)O)C3=O)c(F)c1)CCO2 [Compound 2, 2-(3-(4-(4-amino-5-oxo-7,8-dihydropyrimido[5,4-f][1,4]oxazepin-6(5H)-yl)-2-fluorophenyl)-2-oximidazolidin-1-yl)acetate acid]
42.5 nM	32.2 nM	52.9 nM	CC(C)(F)Cn1ccc(-c2ccc(N3CCOc4ncnc(N)c4C3=O)cc2Cl)n1 [Compound 95, 4-amino-6-(3-chloro-4-(1-(2-fluoro-2-methylpropyl)-1H-pyrazol-3-yl)phenyl)-7,8-dihydropyrimido[5,4-f][1,4]oxazepin-5(6H)-one]
20.4 nM	27.6 nM	13.2 nM	Cc1cc(N2CCOc3ncnc(N)c3C2=O)cc(C)c1-c1cnn(CCC(=O)O)c1 [Compound 70, 3-(4-(4-(4-amino-5-oxo-7,8-dihydropyrimido [5,4-f][1,4]oxazepin-6(5H)-yl)-2,6-dimethylphenyl)-1H-pyrazol-1-yl)propanoic acid]
61.7 nM	59.6 nM	63.7 nM	CC(C)(Cn1cc(-c2ccc(N3CCOc4ncnc(N)c4C3=O)cc2Cl)cn1)C(=O)N1CCCC1 [Compound 85]
95.6 nM	89 nM	102 nM	NC(=O)Cn1cc(-c2ccc(N3CCOc4ncnc(N)c4C3=O)cc2Cl)cn1 [Compound 46, 2-(4-(4-(4-amino-5-oxo-7,8-dihydropyrimido[5,4-f][1,4]oxazepin-6(5H)-yl)-2-chlorophenyl)-1H-pyrazol-1-yl)acetamide]
52.1 nM	46.4 nM	57.8 nM	CCn1cc(-c2ccc(N3CCOc4ncnc(N)c4C3=O)cc2Cl)cn1 [Compound 79, 4-amino-6-(3-chloro-4-(1-ethyl-1H-pyrazol-4-yl)phenyl)-7,8-dihydropyrimido [5,4-f][1,4]oxazepin-5(6H)-one]
26.9 nM	30.3 nM	23.4 nM	Cc1cc(N2CCOc3ncnc(N)c3C2=O)cc(C)c1-c1cn(CC(C)(C)F)nc1C [Compound 97, 4-amino-6-(4-(1-(2-fluoro-2-methylpropyl)-3-methyl-1H-pyrazol-4-yl)-3,5-dimethylphenyl)-7,8-dihydropyrimido[5,4-f][1,4]oxazepin-5(6H)-one]
98.4 nM	72.9 nM	124 nM	Nc1ncnc2c1C(=O)N(c1ccc(-c3cn(CC(=O)O)nc3C(F)(F)F)cc1)CCO2 [Compound 39, 2-(4-(4-(4-amino-5-oxo-7,8-dihydropyrimido[5,4-f][1,4]oxazepin-6(5H)-yl)phenyl)-3-(trifluoromethyl)-1H-pyrazol-1-yl)acetic acid]
60.3 nM	51.6 nM	69 nM	CCc1cc(N2CCOc3ncnc(N)c3C2=O)ccc1N1CCN(CC(=O)O)C1=O [Compound 5, 2-(3-(4-(4-amino-5-oxo-7,8-dihydropyrimido[5,4-f][1,4]oxazepin-6(5H)-yl)-2-ethylphenyl)-2-oxoimidazolidin-1-yl)acetic acid]
48.1 nM	53.3 nM	43 nM	Nc1ncnc2c1C(=O)N(c1ccc(N3CCN(CC(=O)O)C3=O)c(Cl)c1)CCO2 [Compound 1, 2-(3-(4-(4-amino-5-oxo-7,8-dihydropyrimido[5,4-f][1,4]oxazepin-6(5H)-yl)-2-chlorophenyl)-2-oxoimidazolidin-1-yl)acetic acid]
38.9 nM	41.9 nM	35.9 nM	Nc1ncnc2c1C(=O)N(c1ccc(N3CCN(CC(F)(F)F)C3=O)c(Cl)c1)CCO2 [Compound 8, 4-amino-6-(3-chloro-4-(2-oxo-3-(2,2,2-trifluoroethyl)imidazolidin-1-yl)phenyl)-7,8-dihydropyrimido[5,4-f][1,4]oxazepin-5(6H)one]

The next lines start with the molecule.

Compound	IC50 [1]	IC50 [2]	IC50 [3]
Cc1cc(N2CCOc3ncnc(N)c3C2=O)cc(C)c1-c1c(C)nn(CC(F)(F)F)c1C [Compound 93, 4-amino-6-(4-(3,5-dimethyl-1-(2,2,2-trifluoroethyl)-1H-pyrazol-4-yl)-3,5-dimethylphenyl)-7,8-dihydropyrimido[5,4-f][1,4]oxazepin-5(6H)-one]	69.4 nM	64.5 nM	74.2 nM
Cc1cc(N2CCOc3ncnc(N)c3C2=O)ccc1-c1cnn(C(C(=O)O)C(C)C)c1 (stereo not drawn) [Compound 59, 2-(4-(4-(4-amino-5-oxo-7,8-dihydropyrimido [5,4-f][1,4]oxazepin-6(5H)-yl)-2-methylphenyl)-1H-pyrazol-1-yl)-3-methylbutanoic acid]	80.3 nM	54.9 nM	106 nM
Nc1ncnc2c1C(=O)N(c1ccc(N3CCN(CCC(=O)O)C3=O)c(Cl)c1)CCO2 [Compound 6]	31.5 nM	24.4 nM	38.5 nM
CC(C)(Cn1cc(-c2ccc(N3CCOc4ncnc(N)c4C3=O)cc2Cl)cn1)C(=O)O [Compound 71, 3-(4-(4-(4-amino-5-oxo-7,8-dihydropyrimido [5,4-f][1,4]oxazepin-6(5H)-yl)-2-chlorophenyl)-1H-pyrazol-1-yl)-2,2-dimethylpropanoic acid]	30.6 nM	35.9 nM	25.3 nM
CCc1cc(N2CCOc3ncnc(N)c3C2=O)cc(C)c1N1CCN(CC(=O)O)C1=O [Compound 4, 2-(3-(4-(4-amino-5-oxo-7,8-dihydropyrimido[5,4-f][1,4]oxazepin-6(5H)-yl)-2-ethyl-6-methylphenyl)-2-oxoimidazolidin-1-yl)acetic acid]	39.5 nM	46.2 nM	32.9 nM
CC(C)Cn1cc(-c2ccc(N3C(=O)c4c(N)ncnc4OC[C@H]3C)cc2Cl)cn1 [Compound 96, (R)-4-amino-6-(3-chloro-4-(1-isobutyl-1H-pyrazol-4-yl)phenyl)-7-methyl-7,8-dihydropyrimido[5,4-f][1,4] oxazepin-5-(6H)-one]	70.5 nM	69.4 nM	71.7 nM
Nc1ncnc2c1C(=O)N(c1ccc(-n3ccn(CC(=O)O)c3=O)c(Cl)c1)CCO2 [Compound 28, 2-(3-(4-(4-amino-5-oxo-7,8-dihydropyrimido [5,4-f][1,4]oxazepin-6(5H)-yl)-2-chlorophenyl)-2-oxo-2,3-dihydro-1H-imidazol-1-yl)acetic acid]	41.8 nM	45.6 nM	37.9 nM
CC(C)(C(=O)O)n1cc(-c2ccc(N3CCOc4ncnc(N)c4C3=O)cc2Cl)cn1 [Compound 33, 2-(4-(4-(4-amino-5-oxo-7,8-dihydropyrimido[5,4-f][1,4]oxazepin-6(5H)-yl)-2-chlorophenyl)-1H-pyrazol-1-yl)-2-methylpropanoic acid]	36.8 nM	26.9 nM	46.7 nM
CC(C)C(C(=O)O)n1cc(-c2ccc(N3CCOc4ncnc(N)c4C3=O)cc2Cl)cn1 (stereo not drawn) [Compound 65, 2-(4-(4-(4-amino-5-oxo-7,8-dihydropyrimido [5,4-f][1,4]oxazepin-6(5H)-yl)-2-chlorophenyl)-1H-pyrazol-1-yl)-3-methylbutanoic acid]	41.5 nM	39 nM	44.1 nM
Cc1cc(N2CCOc3ncnc(N)c3C2=O)cc(C)c1-c1cn(CC(=O)O)nc1C [Compound 73, 2-(4-(4-(4-amino-5-oxo-7,8-dihydropyrimido [5,4-f][1,4]oxazepin-6(5H)-yl)-2,6-dimethylphenyl)-3-methyl-1H-pyrazol-1-yl)acetic acid]	34.4 nM	24.5 nM	44.3 nM
Nc1ncnc2c1C(=O)N(c1ccc(-c3cnn(CCC(=O)O)c3)c(F)c1)CCO2 [Compound 37, 3-(4-(4-(4-amino-5-oxo-7,8-dihydropyrimido[5,4-f][1,4]oxazepin-6(5H)-yl)-2-fluorophenyl)-1H-pyrazol-1-yl) propanoic acid]	79.6 nM	84.6 nM	74.5 nM
Nc1ncnc2c1C(=O)N(c1ccc(-c3cn(CCC(=O)O)nc3C(F)(F)F)cc1)CCO2 [Compound 62]	68.2 nM	57.9 nM	78.6 nM
CCc1cc(N2CCOc3ncnc(N)c3C2=O)ccc1-c1cnn(CC(C)C)c1 [Compound 90, 4-amino-6-(3-ethyl-4-(1-isobutyl-1H-pyrazol-4-yl)phenyl)-7,8-dihydropyrimido [5,4-f][1,4]oxazepin-5(6H)-one]	60 nM	62 nM	58 nM
CC(C)(C)Cn1cc(-c2ccc(N3CCOc4ncnc(N)c4C3=O)cc2Cl)cn1 [Compound 88]	25.7 nM	27 nM	24.4 nM
